Reference: PubChem BioAssay AID602298 (The Scripps Research Institute Molecular Screening Center, 2012)
Calls of active or inactive are those of the source. The rule behind the calls is not given here.

Target: Melanocortin receptor 4 (Homo sapiens) (UniProt P32245)
Assay: PubChem AID 602298
Details: MC4R stable cells, MTII-stimulated cAMP, TR-FRET

Chain of Melanocortin receptor 4 (Homo sapiens) (P32245 whole entry, looked up): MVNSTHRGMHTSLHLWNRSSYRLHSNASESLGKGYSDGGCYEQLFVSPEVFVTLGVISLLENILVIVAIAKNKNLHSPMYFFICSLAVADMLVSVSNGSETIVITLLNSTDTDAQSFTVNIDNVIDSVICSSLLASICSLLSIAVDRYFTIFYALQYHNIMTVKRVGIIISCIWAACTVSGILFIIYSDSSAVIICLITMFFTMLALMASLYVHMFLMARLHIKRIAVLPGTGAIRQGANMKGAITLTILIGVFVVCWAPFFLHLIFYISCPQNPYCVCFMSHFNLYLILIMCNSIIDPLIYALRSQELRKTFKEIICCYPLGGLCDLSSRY

CCOP(=O)(CCP(=O)(OCC)OCC)OCC.C[CH2][Sn]([Cl])([Cl])[CH2]C
IC50: inactive
